Measurements reported in ChEMBL document CHEMBL3352417, “Confronting the challenges of discovery of novel antibacterial agents” (Bioorg Med Chem Lett, 2014).
≈ marks a conversion by molar mass, not a printed value.

Columns and labels:
[1] = Inhibition of Enterococcus faecalis ParE
[2] = Inhibition of Enterococcus faecalis DNA gyrase subunit B
[3] = target: Voltage-gated inwardly rectifying potassium channel KCNH2 (Homo sapiens, UniProt Q12809); assay: Inhibition of human ERG
Staphylococcus aureus = assay: Antimicrobial activity against Staphylococcus aureus; assay type: functional
Streptococcus pneumoniae = assay: Antimicrobial activity against Streptococcus pneumoniae; assay type: functional
[4] = Inhibition of beta-lactamase (unknown origin)

Sequence of Voltage-gated inwardly rectifying potassium channel KCNH2 (Q12809 whole entry): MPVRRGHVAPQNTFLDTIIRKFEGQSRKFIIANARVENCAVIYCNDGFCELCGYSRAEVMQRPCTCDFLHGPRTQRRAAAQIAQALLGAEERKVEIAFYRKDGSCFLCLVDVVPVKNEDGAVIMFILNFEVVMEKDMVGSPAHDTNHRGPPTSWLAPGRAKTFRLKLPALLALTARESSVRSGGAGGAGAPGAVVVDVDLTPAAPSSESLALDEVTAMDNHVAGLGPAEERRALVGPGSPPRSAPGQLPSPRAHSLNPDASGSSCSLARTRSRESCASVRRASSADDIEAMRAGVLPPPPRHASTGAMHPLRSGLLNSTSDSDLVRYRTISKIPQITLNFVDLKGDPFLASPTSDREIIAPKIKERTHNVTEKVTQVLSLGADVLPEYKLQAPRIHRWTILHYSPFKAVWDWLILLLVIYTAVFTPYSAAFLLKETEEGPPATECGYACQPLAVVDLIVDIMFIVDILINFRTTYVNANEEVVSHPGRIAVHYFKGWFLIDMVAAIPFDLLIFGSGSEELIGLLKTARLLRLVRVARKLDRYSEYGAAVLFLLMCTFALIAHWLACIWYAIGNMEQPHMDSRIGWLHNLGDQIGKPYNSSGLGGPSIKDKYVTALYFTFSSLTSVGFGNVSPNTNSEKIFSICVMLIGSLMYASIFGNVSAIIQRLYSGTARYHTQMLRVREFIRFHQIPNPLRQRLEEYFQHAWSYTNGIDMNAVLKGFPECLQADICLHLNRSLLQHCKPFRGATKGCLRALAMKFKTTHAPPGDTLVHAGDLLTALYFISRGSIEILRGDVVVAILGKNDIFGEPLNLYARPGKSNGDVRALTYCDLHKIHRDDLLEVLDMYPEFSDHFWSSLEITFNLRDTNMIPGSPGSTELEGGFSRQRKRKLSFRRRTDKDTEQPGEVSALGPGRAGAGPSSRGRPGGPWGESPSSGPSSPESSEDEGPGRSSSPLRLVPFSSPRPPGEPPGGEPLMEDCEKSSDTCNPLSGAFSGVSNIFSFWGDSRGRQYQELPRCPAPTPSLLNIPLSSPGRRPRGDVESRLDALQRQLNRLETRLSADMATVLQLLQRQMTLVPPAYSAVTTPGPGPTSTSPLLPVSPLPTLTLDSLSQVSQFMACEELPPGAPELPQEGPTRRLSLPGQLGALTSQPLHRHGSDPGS

Compound: CNc1cc(F)cc2c1[nH]c1nc(Oc3cnc(C)nc3)nc(N3CC4[C@H](N)C[C@]4(C)C3)c12 (stereo partly specified)
- IC50 [1]: < 0.0003 µM
- IC50 [2]: < 0.0003 µM

Compound: O=c1ccc2ncc(=O)n3c2n1C[C@H]3CN1CCC(NCc2cc3c(cn2)OCCC3)CC1 [GEPOTIDACIN]
- IC50 [3]: 1400 µM
- MIC90 (Staphylococcus aureus): 0.5 mg/L (≈ 1.11 µM)
- MIC90 (Streptococcus pneumoniae): 0.25 mg/L (≈ 0.557 µM)

Compound: O=C(O)C[C@@H]1CC[C@H](NC(=O)Cc2cccs2)B(O)O1 [VABORBACTAM]
- IC50 [4]: 0.009 µM
